Data taken from patent US20260198495A1, “BINARY INSECTICIDE COMPOSITION AND USE THEREOF” (SHENYANG SINOCHEM AGROCHEMICALS R & D CO., LTD., priority 2022, published 2026).

How the values were obtained:
Format in all cases: in vivo
[1] = test system: 3rd-instar larvae of Yponomeuta evonymallus (Linnaeus); test: Synergism screening (Bliss) of I-72 + pyrethroid insecticides, Example 37, Table 37; conditions: single pesticide, leaf dipping, 72 hours
Procedure: Test target: 3rd-instar larvae of Yponomeuta evonymallus (Linnaeus).
(§1) Preparation of the pesticide solution: according to different test requirements, the test samples were accurately weighed respectively with an electronic analytical balance. The technical pesticides were dissolved in acetone, and then diluted with 0.1% Tween 80 water into a series of pesticide solutions with a certain concentration gradient according to the experimental design dosage.
(§2) Experimental method: Firstly, Hylotelephium spectabile leaves were selected and dipped into the prepared pesticide solutions for 10 s in the order from low dosage to high dosage according to the experimental design. After natural air-drying in the shade, they were placed in a 9-cm-diameter Petri dish with filter paper, and uniform and healthy test insects were introduced, with 10 insects for each treatment and 3 replicates for each treatment. In addition, a blank control (CK) was set up.
(§3) The treated test materials were placed in an observation room, and the temperature, humidity and illumination of the observation room could be adjusted as needed. The number of dead and alive insects was investigated 72 hours later, and the corrected mortality rate was calculated using the Abbott's formula.
(§4) The synergism of the mixture was evaluated by the Bliss method. According to the concept of independent joint action he proposed, Bliss believes that the theoretical mortality rate P when insecticides are used in combination can be calculated by the following formula: […]
(§5) Pm is the measured mortality rate (%) of the target when the first active ingredient is at a concentration of m; and Pn is the measured mortality rate (%) of the target when the second active ingredient is used at a concentration of n.
(§6) If the actual mortality rate of the target after the two active ingredients are mixed at a certain concentration is greater than theoretical mortality rate P, it is determined that the two active ingredients have a synergistic effect when used in combination at the set concentration, and otherwise, they have an antagonistic effect.

Aphis craccivora nymphs = test: Synergism screening (Bliss) of I-72 + pyrethroid insecticides, Example 38, Table 38; conditions: for mortality at 0.3 µg/mL / mortality at 1 µg/mL / mortality at 3 µg/mL: Aphis craccivora, in Vicia faba, 48 h; for mortality at 0.3 µg/mL: read-out: Measured mortality rate (%), single pesticide, concentration 0.3 mg/L, broad bean seedling spraying; for mortality at 1 µg/mL: read-out: Measured mortality rate (%), single pesticide, concentration 1 mg/L, broad bean seedling spraying; for mortality at 3 µg/mL: read-out: Measured mortality rate (%), single pesticide, concentration 3 mg/L, broad bean seedling spraying; for Measured mortality rate (%): single pesticide, broad bean seedling spraying, 48 hours
Procedure: Test target: Aphis craccivora nymphs, a sensitive strain reared indoors.
as §1
Experimental method: first, broad bean seedlings with uniform and consistent Aphis craccivora were selected, with about 30-40 insects on each seedling. Then, they were evenly sprayed with the pesticide solution in the order from low dosage to high dosage according to the experimental design, with 1.5 mL of the solution for each leaf and 3 replicates for each treatment. In addition, a blank control (CK) was set up.
as §3, with “48” for “72”
(§7) The synergism of the mixture was evaluated by adopting the Bliss method, as in Example 5.

[2] = test system: 2nd-instar larvae of Plutella xylostella; test: Synergism screening (Bliss) of I-72 + insect attractants and insecticides, Example 49, Table 49; conditions: for Measured mortality rate: single pesticide, 72 hours
Procedure: (§8) Test target: 2nd-instar larvae of Plutella xylostella.
as §1
as §2, with “first, cabbage” for “Firstly, Hylotelephium spectabile”, “in” for “into”, “solution” for “solutions”, “CK” for “(CK)”
as §3, §7

[3] = test system: 2nd-instar larvae of Plutella xylostella; test: whole plant or invertebrate; conditions: Plutella xylostella, 72 h, read-out: Measured mortality rate
Procedure: as §8, §1
as §2, with “first, cabbage” for “Firstly, Hylotelephium spectabile”, “in” for “into”, “solution” for “solutions”
as §3, §4, §5, §6

[4] = Plutella xylostella, 72 h, read-out: Measured mortality rate

Molecule: CC1(C)C(C(=O)OC(C#N)c2cccc(Oc3ccccc3)c2)C1(C)C (stereo not shown) [Fenpropathrin]
- Measured mortality rate (%) ([1]; concentration 0.5 mg/L): 13.3%
- Measured mortality rate (%) ([1]; concentration 1 mg/L): 22.6%
- Measured mortality rate (%) ([1]; concentration 5 mg/L): 40.7%

Molecule: CC(C)C(C(=O)OC(C#N)c1cccc(Oc2ccccc2)c1)c1ccc(Cl)cc1 (stereo not shown) [Fenvalerate]
- mortality at 0.3 µg/mL (Aphis craccivora nymphs): 14.7%
- mortality at 1 µg/mL (Aphis craccivora nymphs): 29%
- mortality at 3 µg/mL (Aphis craccivora nymphs): 51.1%

Molecule: N#Cc1nn(-c2c(Cl)cc(C(F)(F)F)cc2Cl)c(N)c1[S+]([O-])C(F)(F)F (stereo not shown) [Fipronil]
- mortality at 0.01 µg/mL [2, 4]: 6.7%
- mortality at 0.1 µg/mL [2, 4]: 16.7%
- mortality at 1 µg/mL [2, 4]: 27.6%

Molecule: O=C(NC(=O)c1c(F)cccc1F)Nc1ccc(Oc2ccc(C(F)(F)F)cc2Cl)cc1F [Flufenoxuron]
- mortality at 0.01 µg/mL [3]: 9.7%
- mortality at 0.5 µg/mL [3]: 10.7%
- mortality at 25 µg/mL [3]: 27.6%

Molecule: CON=CNC(=O)c1ccc(C2=NOC(c3cc(Cl)cc(Cl)c3)(C(F)(F)F)C2)cc1C (stereo not shown) [Fluxametamide]
- Measured mortality rate ([2]; 0.01 mg/L): 6.9%
- Measured mortality rate ([2]; 0.1 mg/L): 48.4%
- Measured mortality rate ([2]; 1 mg/L): 75.9%

Molecule: CC1(C)[C@H](C(=O)O[C@H](C#N)c2cccc(Oc3ccccc3)c2)[C@@H]1/C=C(\Cl)C(F)(F)F [Gamma-cyhalothrin]
- Measured mortality rate (%) ([1]; concentration 0.1 mg/L): 6.9%
- Measured mortality rate (%) ([1]; concentration 5 mg/L): 48.3%

Molecule: O=C(NC(=O)c1c(F)cccc1F)Nc1cc(Cl)c(OC(F)(F)C(F)F)c(Cl)c1 [Hexaflumuron]
- mortality at 0.025 µg/mL [3]: 6.7%
- mortality at 0.5 µg/mL [3]: 13.8%
- mortality at 10 µg/mL [3]: 22.6%

Molecule: CCN1OCC(NC(=O)c2ccc(C3=NOC(c4cc(Cl)c(F)c(Cl)c4)(C(F)(F)F)C3)cc2C)C1=O (stereo not shown) [Isocycloseram]
- Measured mortality rate ([2]; 0.01 mg/L): 17.9%
- Measured mortality rate ([2]; 0.1 mg/L): 71.9%
- Measured mortality rate ([2]; 1 mg/L): 80.0%

Molecule: O=C(NC(=O)c1c(F)cccc1F)Nc1cc(Cl)c(OC(F)(F)C(F)C(F)(F)F)cc1Cl (stereo not shown) [Lufenuron]
- mortality at 0.025 µg/mL [3]: 7.4%
- mortality at 0.5 µg/mL [3]: 12.5%
- mortality at 10 µg/mL [3]: 20.7%

Molecule: CCCCCCCC/C=C\CCCCCCCCCCCCC [Muscalure]
- Measured mortality rate ([2]; 0.002 mg/L): 3.1%
- Measured mortality rate ([2]; 0.1 mg/L): 10.0%
- Measured mortality rate ([2]; 5 mg/L): 20.7%

Molecule: CC1(C)C(C=C(Cl)Cl)C1C(=O)OCc1cccc(Oc2ccccc2)c1 (stereo not shown) [Permethrin]
- mortality at 0.3 µg/mL (Aphis craccivora nymphs): 12%
- mortality at 1 µg/mL (Aphis craccivora nymphs): 25.3%
- mortality at 3 µg/mL (Aphis craccivora nymphs): 64.8%

Molecule: FC(F)(F)c1ccc(OCCCOc2c(Cl)cc(OCC=C(Cl)Cl)cc2Cl)nc1 [Pyridalyl]
- mortality at 0.005 µg/mL [2, 4]: 8%
- mortality at 0.1 µg/mL [2, 4]: 12.9%
- mortality at 2 µg/mL [2, 4]: 24.1%

Molecule: CC1(C)[C@H](C=C(Cl)Cl)[C@H]1C(=O)O[C@H](C#N)c1cccc(Oc2ccccc2)c1 [Theta-cypermethrin]
- Measured mortality rate (%) ([1]; concentration 0.5 mg/L): 10.3%
- Measured mortality rate (%) ([1]; concentration 1 mg/L): 16.7%
- Measured mortality rate (%) ([1]; concentration 5 mg/L): 46.4%

Molecule: O=C(NC(=O)c1ccccc1Cl)Nc1ccc(OC(F)(F)F)cc1 [Triflumuron]
- mortality at 0.025 µg/mL [3]: 6.9%
- mortality at 0.5 µg/mL [3]: 13.8%
- mortality at 10 µg/mL [3]: 17.2%

Molecule: CC1(C)C(C=C(Cl)Cl)C1C(=O)OC(C#N)c1cccc(Oc2ccccc2)c1 (stereo not shown) [Zeta-cypermethrin]
- Measured mortality rate (%) (Aphis craccivora nymphs; concentration 0.15 mg/L): 17.1%
- Measured mortality rate (%) (Aphis craccivora nymphs; concentration 2 mg/L): 64.5%

Molecule: Pyrethrin
- Measured mortality rate (%) (Aphis craccivora nymphs; concentration 0.3 mg/L): 15.6%
- Measured mortality rate (%) (Aphis craccivora nymphs; concentration 1 mg/L): 25.6%
- Measured mortality rate (%) (Aphis craccivora nymphs; concentration 3 mg/L): 63.0%
